For one data set, the system named is E. coli ATTC 8739. In kind it is cell-based, Escherichia coli. The settings on record: ATTC 8739. The protocol: (§1) MICs were measured after 18–20 h of incubation in sterile 96-well plates (Corning Costar 3598 microtiter plates) in Mueller Hinton Broth (MHB) culture medium, (Difco, USA), according to well known in vitro protocols. Bacterial strains in Table 1 were: P. aeruginosa ATTC 9027, E. coli ATTC 8739, S. aureus ATTC 6538, and E. faecalis ATTC 29212. MICs shown in table 4 were performed by Mary Conrad at Cubist Pharmaceuticals (Lexington, MA) in non-binding surface plates.

For data set [1], the system named is Madine-Darby canine kidney cells (MDCK, renal model). The data set is described as follows: In vitro cytotoxicity (WST-1 cell viability), MDCK. It is filed as cell-based. The protocol: (§2) Cell viability assays were performed using the tetrazolium dye WST1 (similar to MTT) on human dermal fibroblasts (3T3 hDF), MDCK (renal model, Madin-Darby canine kidney cells) and PC12 (NGF treated; neuronal model) cell lines and followed standard protocols. Briefly, cells were seeded into 96-well plates, after incubation for 24 h, the medium was replaced with fresh cell culture medium containing the products (range 0-1.2 mg/mL). Negative and positive controls consisted of plates in the absence of the test compound and plates with sodium dodecyl sulfate (0.02% w/v), respectively. Cell viability was assayed with the tetrazolium salt (4-[3-(4- iodophenyl)-2-(4-nitrophenyl)-2H-5-tetrazolio]-1,3-benzene disulfonate) (WST-1). The relative WST-1 absorbance was recorded at 450 nm.
(§3) The products at concentrations ranging from 0 to 1.2 mg/mL were tested (triplicate) and in two independent experiments. The statistical analysis of the data was performed by using non-linear regression (curve-fit) and the model used agreed with the four parameter logistic model (4PL), also called the Hill-Slope model (sigmoid model), with the following equation: […]
(§4) where y is the percent activity and x is the corresponding concentration. The quantities determined where the point estimate IC50 (Half maximal (50%) inhibitory concentration (IC) of a substance, see Table II), the corresponding 95% confidence interval and R^2 (measures the goodness of fit) are shown in the Supplementary Table S2.
(Tetrazolium dyes change colour on reduction, which living cells bring about.)

The subject of data set [2] is human dermic fibroblasts (hDF). The data set is described as follows: In vitro cytotoxicity (WST-1 cell viability), hDF. It is filed as cell-based. The protocol: as §2, §3, §4
A further data set concerns S. aureus ATTC 6538. The data set can be described thus: microbe, parasite or virus in culture. In kind it is cell-based, Staphylococcus aureus. The settings on record: for MIC S. aureus: ATTC 6538. The protocol:
as §1

Data set [3] deals with PC12 (treated with NGF, neuronal model). The data set is described as follows: In vitro cytotoxicity (WST-1 cell viability), PC12. It is filed as cell-based. The settings on record: WST-1, NGF treated. The method, then: as §2, §3, §4
The test system of a further data set is P. aeruginosa ATTC 9027. In kind it is cell-based, Pseudomonas aeruginosa. To be noted: ATTC 9027. The method, then: as §1
The subject of the next data set is E. faecalis ATTC 29212. The data set is described as follows: microbe, parasite or virus in culture. It is filed as cell-based, Enterococcus faecalis. The method, then:
Lipopeptide 39 was chosen for this, as it is known that long fatty acids tend to favor activity against Gram-positive bacteria in polymyxin analogs. […] In summary, new broad-spectrum antimicrobial lipopeptides were achieved.
as §1

The subject of the next data set is P. aeruginosa. The protocol:
(§5) Strains of E. coli and P. aeruginosa with resistance to quinolones and carbapenems as well as multi-drug-resistant bacteria were tested.
as §1

The next data set deals with E. coli. The protocol: as §5, §1
For a further data set, the system named is S. aureus. The data set is described as follows: microbe, parasite or virus in culture. The settings on record: for MIC: Staphylococcus aureus. It is filed as cell-based, Staphylococcus aureus. The method, then: as §1
The conditions of data set [4]: no reference given, cited from earlier work.
Setting [5] is: Supplementary Table S2, experiment 1.
[6] abbreviates: Supplementary Table S2, experiment 2.
Where [7] appears, read: resistant to nalidixic acid, cotrimoxazole and ampicillin.

In brackets after ≈: the same amount, converted by molar mass. Like-named read-outs stand apart in the source and are kept apart here. Bridge positions count the residues as written; N and C are the ends. Square brackets hold non-standard residues; d marks the D form. Peptide text beside a SMILES is read from it. * marks the point of attachment. Lauroyl = CCCCCCCCCCCC(=O)*; Nonanoyl = CCCCCCCCC(=O)*; Nle = CCCC[C@H](N)C(=O)O; Dab = NCC[C@H](N)C(=O)O

Turning to `CCCCCCCCC(=O)N[C@@H](CCCNC(=N)N)C(=O)N[C@H](C(=O)N[C@@H](CCCNC(=N)N)C(=O)N[C@H]1CSSC[C@@H](C(N)=O)NC(=O)[C@H](CCCNC(=N)N)NC(=O)[C@H](CCCNC(=N)N)NC(=O)[C@H](CC(C)C)NC(=O)[C@@H](Cc2ccccc2)NC(=O)[C@H](CCCNC(=N)N)NC1=O)[C@@H](C)O` [Analog 12] (Nonanoyl-RTRCR[dF]LRRC-NH2; disulfide 4-10), the “MIC E. coli” value against E. coli ATTC 8739 was in the range of 8 to 16 µg/mL. The compound further yielded an IC50 MDCK Exp1 in data set [1] (setting [5]) of 233 µg/mL (≈ 155 µM). The compound further showed an IC50 MDCK Exp2 in data set [1] (setting [6]) of 147 µg/mL (≈ 97.7 µM). In addition, in [1] (cytotoxicity, WST-1), the “IC50 MDCK” value worked out at 190 µg/mL (≈ 126 µM). The same compound had an IC50 hDF Exp1 in [2] (setting [5]) of 147 µg/mL (≈ 97.7 µM). For the same compound, the IC50 hDF Exp2 in [2] (setting [6]) is 181 µg/mL (≈ 120 µM). In addition, the “IC50 hDF” value in data set [2] (cytotoxicity, WST-1) stood at 164 µg/mL (≈ 109 µM). The “MIC S. aureus” value against S. aureus ATTC 6538 was 8 µg/mL (≈ 5.32 µM). The “IC50 PC12” value in data set [3] is 225 µg/mL (≈ 150 µM). Besides, in the data set on P. aeruginosa ATTC 9027, the “MIC P. aeruginosa” value fell in the range of 16 to 32 µg/mL.

With `CCCCCCCCCCCC(=O)N[C@@H](CCN)C(=O)N[C@H](C(=O)N[C@@H](CCN)C(=O)N[C@H]1CSSC[C@H](C(N)=O)NC(=O)[C@H](CCN)NC(=O)[C@H](CCN)NC(=O)[C@H](CCCC)NC(=O)[C@@H](Cc2ccccc2)NC(=O)[C@H](CCN)NC1=O)[C@@H](C)O` [Analog 39, dodecanoyl-Dab-Thr-Dab-Cys-Dab-Phe-Nle-Dab-Dab-Cys] (Lauroyl-[Dab]T[Dab]C[Dab][dF][Nle][Dab][Dab][dC]-NH2; disulfide 4-10), the “MIC E. coli” value with E. coli ATTC 8739 stood at 4 µg/mL (≈ 3.16 µM). The “MIC E. faecalis Wild type ATTC 29212” value with E. faecalis ATTC 29212 lay within 2 to 4 µg/mL. Also, in the data set on P. aeruginosa, the “MIC P. aeruginosa 38a” value was determined as 1 µg/mL (≈ 0.79 µM) and the “MIC P. aeruginosa 40b” value stood at 2 µg/mL (≈ 1.58 µM). For the same compound, the “MIC E. coli NDM-1” value against E. coli (highly-resistant, New Delhi metallo-beta-lactamase gene) is 0.5 µg/mL (≈ 0.395 µM). Moreover, the “MIC E. coli VAL 5” value against E. coli (resistant to nalidixic acid) worked out at 0.5 µg/mL (≈ 0.395 µM). Also, in the data set with E. coli (setting [7]), the “MIC E. coli MAC 21a” value stood at 1 µg/mL (≈ 0.79 µM) and the “MIC E. coli VAL 10” value stood at 0.5 µg/mL (≈ 0.395 µM). In the data set on S. aureus, the “MIC S. aureus DR, MR SAU.1616” value is 8 µg/mL (≈ 6.32 µM); the “MIC S. aureus DR, MS SAU.278” value came to 2 µg/mL (≈ 1.58 µM); the “MIC S. aureus MR ATTC 43300” value is 1 µg/mL (≈ 0.79 µM); the “MIC S. aureus MR SAU.1118” value worked out at 1 µg/mL (≈ 0.79 µM). For the same compound, in the data set on S. aureus, the “MIC S. aureus MS ATTC 29213” value came to 1 µg/mL (≈ 0.79 µM). Further, in the data set on P. aeruginosa ATTC 9027, the “MIC P. aeruginosa” value was determined as 1 µg/mL (≈ 0.79 µM).

For the compound `CN[C@H](CC(C)C)C(=O)N[C@H]1C(=O)N[C@@H](CC(N)=O)C(=O)N[C@H]2C(=O)N[C@H]3C(=O)N[C@H](C(=O)N[C@H](C(=O)O)c4cc(O)cc(O)c4-c4cc3ccc4O)[C@H](O)c3ccc(c(Cl)c3)Oc3cc2cc(c3O[C@@H]2O[C@H](CO)[C@@H](O)[C@H](O)[C@H]2O[C@H]2C[C@](C)(N)[C@H](O)[C@H](C)O2)Oc2ccc(cc2Cl)[C@H]1O` [Vancomycin], the MIC with E. faecalis ATTC 29212 (Enterococcus faecalis, ATTC29212, read-out: MIC E. faecalis Wild type ATTC 29212) amounted to 2 µg/mL (≈ 1.38 µM); with S. aureus ATTC 6538 (Staphylococcus aureus, ATTC6538, read-out: MIC S. aureus), 1 µg/mL (≈ 0.69 µM); in the data set on S. aureus (read-out: MIC S. aureus DR, MR SAU.1616) it was 2 µg/mL (≈ 1.38 µM); with S. aureus (read-out: MIC S. aureus DR, MS SAU.278) it was 2 µg/mL (≈ 1.38 µM); with S. aureus (read-out: MIC S. aureus MR ATTC 43300) it was 2 µg/mL (≈ 1.38 µM); in the data set with S. aureus (read-out: MIC S. aureus MR SAU.1118) it was 0.5 µg/mL (≈ 0.345 µM). Moreover, the MIC with S. aureus (read-out: MIC S. aureus MS ATTC 29213) lay in the range of 0.5 to 1 µg/mL (≈ 0.345 to 0.69 µM).

`CCCCCCCCCC(=O)N[C@@H](Cc1c[nH]c2ccccc12)C(=O)N[C@H](CC(N)=O)C(=O)N[C@@H](CC(=O)O)C(=O)N[C@@H]1C(=O)NCC(=O)N[C@@H](CCCN)C(=O)N[C@@H](CC(=O)O)C(=O)N[C@H](C)C(=O)N[C@@H](CC(=O)O)C(=O)NCC(=O)N[C@H](CO)C(=O)N[C@@H]([C@H](C)CC(=O)O)C(=O)N[C@@H](CC(=O)c2ccccc2N)C(=O)O[C@@H]1C` [Daptomycin]: the “MIC E. faecalis Wild type ATTC 29212” value in the data set on E. faecalis ATTC 29212 fell in the range of 2 to 4 µg/mL. The “MIC S. aureus” value against S. aureus ATTC 6538 was determined as 1 µg/mL (≈ 0.617 µM). Moreover, in the data set on S. aureus, the “MIC S. aureus DR, MR SAU.1616” value is 16 µg/mL (≈ 9.87 µM); the “MIC S. aureus DR, MS SAU.278” value came out at 8 µg/mL (≈ 4.94 µM); the “MIC S. aureus MR ATTC 43300” value turned out to be 0.5 µg/mL (≈ 0.309 µM); the “MIC S. aureus MR SAU.1118” value came out at 0.5 µg/mL (≈ 0.309 µM). In the data set on S. aureus, the “MIC S. aureus MS ATTC 29213” value is 0.5 µg/mL (≈ 0.309 µM).

As to Somatostatin, the half-life (usually how long it takes for the measured level to halve) in data set [4] (administered in vivo) was 2 to 3 min.

Turning to lanreotide [reference compound], the half-lives in data set [4] (metabolic degradation) was 2 to 3 h.

The values above are taken from article PMC4603705, “A bioinspired peptide scaffold with high antibiotic activity and low in vivo toxicity” (Scientific Reports, 2015).
